Data taken from ChEMBL document CHEMBL1134887, “Muraymycins, novel peptidoglycan biosynthesis inhibitors: semisynthesis and SAR of their derivatives” (Bioorg Med Chem Lett, 2002).
Calls of active or inactive are those of the source. No cut-off for these calls is given here.

Key:
Format in all cases: functional
[1] = test system: Staphylococcus epidermidis; assay: Inhibitory activity against MraY/MurG at a concentration of 25 ug/mL; No activity
[2] = test system: Staphylococcus epidermidis; assay: Inhibitory activity against MraY/MurG at a concentration of 6.25 ug/mL No activity
[3] = test system: Staphylococcus epidermidis; assay: Compound was tested for reduction in the production of lipid II relative to the control(judged by intensity) on the film, inhibition of either MraY or MurG at a dose of 50 ug/mL
[4] = test system: Staphylococcus epidermidis; assay: Compound was tested for reduction in the production of lipid II relative to the control(judged by intensity) on the film, inhibition of either MraY or MurG at a dose of 100 ug/mL
[5] = test system: Staphylococcus epidermidis; assay: Inhibitory activity against MraY/MurG at a concentration of 100 ug/mL; No activity
[6] = test system: Staphylococcus epidermidis; assay: Inhibitory activity against MraY/MurG at a concentration of 6.25 ug/mL; No activity
[7] = test system: Staphylococcus epidermidis; assay: Inhibitory activity against MraY/MurG at a concentration of 50 ug/mL; No activity
[8] = test system: Staphylococcus epidermidis; assay: Compound was tested for reduction in the production of lipid II relative to the control(judged by intensity) on the film, inhibition of either MraY or MurG at a dose of 6.25 ug/mL
[9] = test system: Staphylococcus epidermidis; assay: Compound was tested for reduction in the production of lipid II relative to the control(judged by intensity) on the film, inhibition of either MraY or MurG at a dose of 25 ug/mL
[10] = test system: Staphylococcus epidermidis; assay: Inhibitory activity against MraY/MurG at a concentration of 6.25 ug/mL; Not activity
[11] = test system: Staphylococcus epidermidis; assay: Inhibitory activity against MraY/MurG at a concentration of 100 ug/mL; Not activity

## CCCCCCCCCCCCN(CCCNC(=O)[C@@H](NC(=O)[C@@H](NC(=O)N[C@H](C(=O)O)C(C)C)[C@@H]1CCN=C(N)N1)[C@@H](O)C(C)C)[C@H](C(=O)O)C(O[C@@H]1O[C@H](CN)[C@@H](O)[C@H]1OC)[C@H]1O[C@@H](n2ccc(=O)[nH]c2=O)[C@H](O)[C@@H]1O (some centres undefined)
[1]
  Inhibitory activity: inactive
[2]
  Inhibitory activity: inactive
[3]
  Inhibitory activity: Active
[4]
  Inhibitory activity: Active

## CCCCCCNC(=O)NC[C@H]1O[C@@H](OC(C2C(=O)N(CCCCCC)C(=O)N2CCCNC(=O)[C@@H](NC(=O)[C@@H](NC(=O)N[C@H](C(=O)O)C(C)C)[C@@H]2CCN=C(N)N2)[C@@H](O)C(C)C)[C@H]2O[C@@H](n3ccc(=O)[nH]c3=O)[C@H](O)[C@@H]2O)[C@H](OC)[C@@H]1O (some centres undefined)
[5]
  Inhibitory activity: Active
[1]
  Inhibitory activity: Active
[6]
  Inhibitory activity: Active
[7]
  Inhibitory activity: Active

## CO[C@H]1[C@H](OC(C2C(=O)N(c3ccc(F)cc3)C(=O)N2CCCNC(=O)[C@@H](NC(=O)[C@@H](NC(=O)N[C@H](C(=O)O)C(C)C)[C@@H]2CCN=C(N)N2)[C@@H](O)C(C)C)[C@H]2O[C@@H](n3ccc(=O)[nH]c3=O)[C@H](O)[C@@H]2O)O[C@H](CNC(=O)Nc2ccc(F)cc2)[C@H]1O (some centres undefined)
[5]
  Inhibitory activity: Active
[1]
  Inhibitory activity: Active
[6]
  Inhibitory activity: Active
[7]
  Inhibitory activity: Active

## CO[C@H]1[C@H](OC(C2C(=O)N(Cc3ccccc3)C(=O)N2CCCNC(=O)[C@@H](NC(=O)[C@@H](NC(=O)N[C@H](C(=O)O)C(C)C)[C@@H]2CCN=C(N)N2)[C@@H](O)C(C)C)[C@H]2O[C@@H](n3ccc(=O)[nH]c3=O)[C@H](O)[C@@H]2O)O[C@H](CN)[C@H]1O (some centres undefined)
[8]
  Inhibitory activity: Active
[3]
  Inhibitory activity: Active
[9]
  Inhibitory activity: Active
[4]
  Inhibitory activity: Active

## CO[C@H]1[C@H](OC([C@H]2O[C@@H](n3ccc(=O)[nH]c3=O)[C@H](O)[C@@H]2O)[C@@H](C(=O)O)N(CCCNC(=O)[C@@H](NC(=O)[C@@H](NC(=O)N[C@H](C(=O)O)C(C)C)[C@@H]2CCN=C(N)N2)[C@@H](O)C(C)C)Cc2ccc(-c3ccccc3)cc2)O[C@H](CNCc2ccc(-c3ccccc3)cc2)[C@H]1O (some centres undefined)
[5]
  Inhibitory activity: Active
[1]
  Inhibitory activity: Active
[6]
  Inhibitory activity: Active
[7]
  Inhibitory activity: Active

## CCCCCNC[C@H]1O[C@@H](OC([C@H]2O[C@@H](n3ccc(=O)[nH]c3=O)[C@H](O)[C@@H]2O)[C@@H](C(=O)O)N(CCCCC)CCCNC(=O)[C@@H](NC(=O)[C@@H](NC(=O)N[C@H](C(=O)O)C(C)C)[C@@H]2CCN=C(N)N2)[C@@H](O)C(C)C)[C@H](OC)[C@@H]1O (some centres undefined)
[5]
  Inhibitory activity: inactive
[1]
  Inhibitory activity: inactive
[6]
  Inhibitory activity: inactive
[7]
  Inhibitory activity: inactive

## CCCCCCCCCCCCN1C(=O)C(C(O[C@@H]2O[C@H](CN)[C@@H](O)[C@H]2OC)[C@H]2O[C@@H](n3ccc(=O)[nH]c3=O)[C@H](O)[C@@H]2O)N(CCCNC(=O)[C@@H](NC(=O)[C@@H](NC(=O)N[C@H](C(=O)O)C(C)C)[C@@H]2CCN=C(N)N2)[C@@H](O)C(C)C)C1=O (some centres undefined)
[8]
  Inhibitory activity: Active
[3]
  Inhibitory activity: Active
[9]
  Inhibitory activity: Active
[4]
  Inhibitory activity: Active

## CO[C@H]1[C@H](OC([C@H](NCCCNC(=O)[C@@H](NC(=O)[C@@H](NC(=O)N[C@H](C(=O)O)C(C)C)[C@@H]2CCN=C(N)N2)[C@@H](O)C(C)C)C(=O)O)[C@H]2O[C@@H](n3ccc(=O)[nH]c3=O)[C@H](O)[C@@H]2O)O[C@H](CN)[C@H]1O (some centres undefined)
[8]
  Inhibitory activity: Active
[3]
  Inhibitory activity: Active
[9]
  Inhibitory activity: Active
[4]
  Inhibitory activity: Active

## CO[C@H]1[C@H](OC([C@H](NCCCNC(=O)[C@@H](NC(=O)[C@@H](NC(=O)N[C@H](C(=O)O)C(C)C)[C@@H]2CCN=C(N)N2)[C@@H](O)C(C)C)C(=O)O)[C@H]2O[C@@H](n3ccc(=O)[nH]c3=O)[C@H](O)[C@@H]2O)O[C@H](C/N=C(C)/C=C(/C)O)[C@H]1O (some centres undefined)
[5]
  Inhibitory activity: Active
[1]
  Inhibitory activity: Active
[6]
  Inhibitory activity: Active
[7]
  Inhibitory activity: Active

## CCCCCN(CCCNC(=O)[C@@H](NC(=O)[C@@H](NC(=O)N[C@H](C(=O)O)C(C)C)[C@@H]1CCN=C(N)N1)[C@@H](O)C(C)C)[C@H](C(=O)O)C(O[C@@H]1O[C@H](CN)[C@@H](O)[C@H]1OC)[C@H]1O[C@@H](n2ccc(=O)[nH]c2=O)[C@H](O)[C@@H]1O (some centres undefined)
[1]
  Inhibitory activity: inactive
[6]
  Inhibitory activity: inactive
[7]
  Inhibitory activity: Active
[4]
  Inhibitory activity: Active

## CO[C@H]1[C@H](OC([C@H]2O[C@@H](n3ccc(=O)[nH]c3=O)[C@H](O)[C@@H]2O)[C@@H](C(=O)O)N(CCCCCCCCCCCCN2CCOCC2)CCCNC(=O)[C@@H](NC(=O)[C@@H](NC(=O)N[C@H](C(=O)O)C(C)C)[C@@H]2CCN=C(N)N2)[C@@H](O)C(C)C)O[C@H](CN)[C@H]1O (some centres undefined)
[1]
  Inhibitory activity: inactive
[6]
  Inhibitory activity: inactive
[7]
  Inhibitory activity: Active
[4]
  Inhibitory activity: Active

## CO[C@H]1[C@H](OC(C2C(=O)N(c3ccc(F)cc3)C(=O)N2CCCNC(=O)[C@@H](NC(=O)[C@@H](NC(=O)N[C@H](C(=O)O)C(C)C)[C@@H]2CCN=C(N)N2)[C@@H](O)C(C)C)[C@H]2O[C@@H](n3ccc(=O)[nH]c3=O)[C@H](O)[C@@H]2O)O[C@H](CN)[C@H]1O (some centres undefined)
[10]
  Inhibitory activity: Active
[3]
  Inhibitory activity: Active
[9]
  Inhibitory activity: Active
[4]
  Inhibitory activity: Active

## CCCCCCCCCCCCNC(=O)NC[C@H]1O[C@@H](OC(C2C(=O)N(CCCCCCCCCCCC)C(=O)N2CCCNC(=O)[C@@H](NC(=O)[C@@H](NC(=O)N[C@H](C(=O)O)C(C)C)[C@@H]2CCN=C(N)N2)[C@@H](O)C(C)C)[C@H]2O[C@@H](n3ccc(=O)[nH]c3=O)[C@H](O)[C@@H]2O)[C@H](OC)[C@@H]1O (some centres undefined)
[5]
  Inhibitory activity: Active
[1]
  Inhibitory activity: Active
[6]
  Inhibitory activity: Active
[7]
  Inhibitory activity: Active

## COc1ccc(NC(=O)NC[C@H]2O[C@@H](OC(C3C(=O)N(c4ccc(OC)cc4)C(=O)N3CCCNC(=O)[C@@H](NC(=O)[C@@H](NC(=O)N[C@H](C(=O)O)C(C)C)[C@@H]3CCN=C(N)N3)[C@@H](O)C(C)C)[C@H]3O[C@@H](n4ccc(=O)[nH]c4=O)[C@H](O)[C@@H]3O)[C@H](OC)[C@@H]2O)cc1 (some centres undefined)
[5]
  Inhibitory activity: Active
[1]
  Inhibitory activity: Active
[6]
  Inhibitory activity: Active
[7]
  Inhibitory activity: Active

## CCCCCN1C(=O)C(C(O[C@@H]2O[C@H](CN)[C@@H](O)[C@H]2OC)[C@H]2O[C@@H](n3ccc(=O)[nH]c3=O)[C@H](O)[C@@H]2O)N(CCCNC(=O)[C@@H](NC(=O)[C@@H](NC(=O)N[C@H](C(=O)O)C(C)C)[C@@H]2CCN=C(N)N2)[C@@H](O)C(C)C)C1=O (some centres undefined)
[1]
  Inhibitory activity: inactive
[6]
  Inhibitory activity: inactive
[7]
  Inhibitory activity: Active
[4]
  Inhibitory activity: Active

## CCCCCCCCNC(=O)NC[C@H]1O[C@@H](OC(C2C(=O)N(CCCCCCCC)C(=O)N2CCCNC(=O)[C@@H](NC(=O)[C@@H](NC(=O)N[C@H](C(=O)O)C(C)C)[C@@H]2CCN=C(N)N2)[C@@H](O)C(C)C)[C@H]2O[C@@H](n3ccc(=O)[nH]c3=O)[C@H](O)[C@@H]2O)[C@H](OC)[C@@H]1O (some centres undefined)
[11]
  Inhibitory activity: Active
[1]
  Inhibitory activity: Active
[6]
  Inhibitory activity: Active
[7]
  Inhibitory activity: Active
